# Molecular target: TSPO (translocator protein (18 kDa)) (Oryctolagus cuniculus, UniProt G1SMF7)
# Test: [3H]-PK11195 radioligand displacement, size exclusion desalting plates
# Format: binding
# Conditions: 1.2 nM [3H]-PK11195, 50 mM Tris-HCl pH 7.4, 30 min, room temperature; isolated mitochondria
# TSPO (translocator protein (18 kDa)), sequence (G1SMF7 229-397): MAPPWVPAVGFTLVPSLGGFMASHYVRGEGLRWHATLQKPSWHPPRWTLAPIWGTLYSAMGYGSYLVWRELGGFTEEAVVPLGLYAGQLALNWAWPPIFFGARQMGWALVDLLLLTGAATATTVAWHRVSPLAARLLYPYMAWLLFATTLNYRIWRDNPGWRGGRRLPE
row,SMILES,IC50
1,CCN(CC)C(=O)Cc1c(-c2ccc(OCCn3cc(CO)nn3)cc2)nn2c(C)cc(C)nc12 [DPA-triazole],100 ± 20 nM
2,CCC(C)N(C)C(=O)c1cc2ccccc2c(-c2ccccc2Cl)n1 (centres unmarked) [PK11195],5 ± 0.5 nM

# From paper PMC8022998 (Biomacromolecules, 2020)
